The target in assay [1] is Construct 2 (recombinant Hokkaido N1 NA, GCN4-pLI stalk) (Influenza A virus, UniProt Q7TER1). It counts as biochemical, Influenza virus strain A/Hokkaido/15/02 H1N1.
Assay [2] deals with Construct 4 (recombinant Hokkaido N1 NA, Tetrabrachion stalk) (Influenza A virus, UniProt Q7TER1). The class given is biochemical, Influenza virus strain A/Hokkaido/15/02 H1N1.
Assay [3] has as its target Hokkaido virus NA (Influenza A virus, UniProt Q7TER1). The class given is biochemical, Influenza virus strain A/Hokkaido/15/02 H1N1.
The target in assay [4] is Construct 4: FLAG-tagged recombinant Hokkaido N1 neuraminidase with an artificial Tetrabrachion stalk (Staphylothermus marinus | influenza A virus A/Hokkaido/15/02 (H1N1)). The assay can be described thus: SEC.

Several values for one entry are separate records, joined by “and”; a condition that tells them apart may be missing. Identical values can stand only once.

One may read the stoichiometry N as the number of molecules, sites or subunits per partner or assembly.

Construct 2 (recombinant Hokkaido N1 NA, GCN4-pLI stalk), sequence (Q7TER1 70-470): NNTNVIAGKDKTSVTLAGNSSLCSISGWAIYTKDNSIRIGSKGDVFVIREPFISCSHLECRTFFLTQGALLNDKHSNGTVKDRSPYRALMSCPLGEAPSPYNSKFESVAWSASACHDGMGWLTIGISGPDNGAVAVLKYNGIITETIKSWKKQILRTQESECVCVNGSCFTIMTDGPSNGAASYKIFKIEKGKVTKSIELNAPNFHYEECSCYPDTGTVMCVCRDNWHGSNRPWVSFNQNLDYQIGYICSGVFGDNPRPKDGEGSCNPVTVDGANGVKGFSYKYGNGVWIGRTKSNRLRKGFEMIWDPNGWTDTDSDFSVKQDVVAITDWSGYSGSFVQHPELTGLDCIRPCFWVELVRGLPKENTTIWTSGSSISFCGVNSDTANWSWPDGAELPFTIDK
Construct 4 (recombinant Hokkaido N1 NA, Tetrabrachion stalk), sequence (Q7TER1 70-470): as above
Hokkaido virus NA, sequence (Q7TER1 entry or part of it, added parts left off): as the sequence (Q7TER1 70-470) above

Consider `CC(=O)N[C@H]1[C@H]([C@H](O)[C@H](O)CO)OC(Oc2ccc3c(C)cc(=O)oc3c2)(C(=O)O)C[C@@H]1O` (stereo partly drawn) [MUNANA, 4-Methylumbelliferyl N-acetyl-a-D-Neuraminic acid], for which the “K m value for MUNANA” value in assay [1] is 54.4 µM and 54.1 µM and 54.1 ± 4.4 µM; in assay [2] it was 34.7 µM and 34.7 ± 1.9 µM; in assay [3], 24.1 µM and 24.1 ± 1.1 µM.

Take “Construct 4: FLAG-tagged recombinant Hokkaido N1 neuraminidase with an artificial Tetrabrachion stalk (enzyme)”: the stoichiometry N in assay [4] was found to be 4.

For the origin of these results see paper PMC3034727 (PLoS ONE, 2011).
